Assays:
calf thymus DNA = experiment: DNA adduct formation; assay type: biochemical; conditions: 0.5 μM, calf thymus DNA 0.4 mg/mL, pH 7.4, 30 min, 37 °C
human kidney microsomes [1] = experiment: P450-mediated N-oxidation in human kidney microsomes; assay type: in vitro ADME; conditions: limit of detection 50 pmol/min/mg protein
rodents = conditions: cited from earlier work
mice = conditions: cited from earlier work
UGT1A9 [2] = biological target: T1, UGT1A9 (Homo sapiens, UniProt O60656); conditions: cited from earlier work
T1 sequence (O60656 26-530): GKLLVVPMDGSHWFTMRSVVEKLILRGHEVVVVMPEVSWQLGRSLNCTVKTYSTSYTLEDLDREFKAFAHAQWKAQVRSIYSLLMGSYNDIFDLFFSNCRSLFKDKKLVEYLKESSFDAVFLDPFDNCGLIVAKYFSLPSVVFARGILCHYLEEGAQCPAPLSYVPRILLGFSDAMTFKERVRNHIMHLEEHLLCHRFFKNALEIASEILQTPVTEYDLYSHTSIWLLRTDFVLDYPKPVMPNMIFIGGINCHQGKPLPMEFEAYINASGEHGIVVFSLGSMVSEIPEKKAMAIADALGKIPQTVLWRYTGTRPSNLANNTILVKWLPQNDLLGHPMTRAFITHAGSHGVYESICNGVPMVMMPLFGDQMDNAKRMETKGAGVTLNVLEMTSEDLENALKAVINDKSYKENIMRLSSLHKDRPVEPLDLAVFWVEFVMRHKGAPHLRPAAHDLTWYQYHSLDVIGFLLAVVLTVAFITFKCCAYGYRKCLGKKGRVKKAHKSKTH

[3] = system: human microsomes (liver, kidney, colon, rectum); assay type: in vitro ADME; conditions: 1 μM, pH 7.5
UGT1A1 [4] = conditions: cited from earlier work
UGT2B10 [5] = conditions: cited from earlier work
UGT2B10 [6] = conditions: cited from earlier work; remark: listed apart in the source
[7] = system: other UGT1A and UGT2B isoforms; conditions: cited from earlier work
UGT1A9 [8] = biological target: T1, UGT1A9; experiment: Inhibition of propofol glucuronidation in human liver microsomes; assay type: biochemical; conditions: niflumic acid 0.1-2.5 μM, propofol 100 μM
human liver microsomes = experiment: Inhibition of HONH-AαC glucuronidation in human liver microsomes; assay type: biochemical; conditions: niflumic acid 0.1-2.5 μM, HONH-AαC 1 μM
human kidney microsomes [9] = experiment: Inhibition of HONH-AαC glucuronidation in human kidney microsomes; assay type: biochemical; conditions: niflumic acid 0.1-2.5 μM, HONH-AαC 1 μM
UGT1A1 [10] = experiment: Inhibition of estradiol-3-O-Gluc formation in human liver microsomes; assay type: biochemical; conditions: niflumic acid 0.1-2.5 μM, estradiol 25 μM
[11] = pH 7.0; cited from earlier work

Cn1c(NO[C@@H]2O[C@H](C(=O)O)[C@@H](O)[C@H](O)[C@H]2O)nc2ncc(-c3ccccc3)cc21 [PhIP-HN^2-O-Gluc, O-(β-D-glucosidurony1)-2-hydroxyamino-1-methyl-6-phenylimidazo[4,5-b]pyridine]
DNA adduct formation (dG-C8-AαC / dG-C8-PhIP) (calf thymus DNA): higher amounts of dG-C8-PhIP than HONH-PhIP

Cn1c(N)nc2ncc(-c3ccccc3)cc21 [PhIP, 2-amino-1-methyl-6-phenylimidazo[4,5-b]pyridine]
rate of P450-mediated N-oxidation (human kidney microsomes [1]): very low
cancer induction (rodents): induces lymphoma, pancreatic, colorectal, and prostate cancers

Nc1ccc2c(n1)[nH]c1ccccc12 [AαC, 2-Amino-9H-pyrido[2,3-b]indole]
rate of P450-mediated N-oxidation (human kidney microsomes [1]): very low
mutations and early biomarkers of neoplasia (mice; colon of mice): induces lacI mutations and aberrant crypt foci
tumor induction (mice; mice): induces liver and blood vessel tumors

ONc1ccc2c(n1)[nH]c1ccccc12 [HONH-AαC, 2-hydroxyamino-9H-pyrido[2,3-b]indole]
Km (UGT1A9 [2]): 6.3 µM
DNA adduct formation (dG-C8-AαC / dG-C8-PhIP) (calf thymus DNA): comparable levels
principal Gluc conjugate formed [3]: AαC-HN^2-O-Gluc
predominant Gluc conjugate formed ([3]; 20 min): AαC-HON^2-Gluc

Cn1c(NO)nc2ncc(-c3ccccc3)cc21 [HONH-PhIP, 2-hydroxyamino-1-methyl-6-phenylimidazo[4,5-b]pyridine]
Km (UGT1A9 [2]): 36 µM
Km (UGT1A1 [4]): 19 µM
DNA adduct formation (dG-C8-AαC / dG-C8-PhIP) (calf thymus DNA): comparable levels
Km (UGT2B10 [5]): 58 µM

O=C(O)c1cccnc1Nc1cccc(C(F)(F)F)c1 [Niflumic acid, niflumic acid]
effect on UGT2B10 activity (UGT2B10 [6]): does not alter
effect on activities of other UGT1A and UGT2B isoforms [7]: little effect
inhibition of glucuronidation of propofol (UGT1A9 substrate) (UGT1A9 [8]): effective in inhibiting
effect on AαC-HN^2-O-Gluc formation (human liver microsomes): concentration-dependent inhibition
effect on AαC-HON^2-Gluc formation (human liver microsomes): unchanged
effect on AαC-HN^2-O-Gluc formation (human kidney microsomes [9]): greatly decreased
effect on AαC-HON^2-Gluc formation (human kidney microsomes [9]): greatly decreased
effect on formation of estradiol-3-O-Gluc (UGT1A1) (UGT1A1 [10]): unaffected

O=C(O)[C@H]1O[C@@H](N(O)c2ccc3c(n2)[nH]c2ccccc23)[C@H](O)[C@@H](O)[C@@H]1O [AαC-HON^2-Gluc, N^2-(β-D-glucosidurony1)-2-hydroxyamino-9H-pyrido[2,3-b]indole]
DNA adduct formation (dG-C8-AαC / dG-C8-PhIP) (calf thymus DNA): considerably lower than HONH-AαC

Cn1c(N(O)[C@@H]2O[C@H](C(=O)O)[C@@H](O)[C@H](O)[C@H]2O)nc2ncc(-c3ccccc3)cc21 [PhIP-HON^2-Gluc, N^2-(β-D-glucosidurony1)-2-hydroxyamino-1-methyl-6-phenylimidazo[4,5-b]pyridine]
DNA adduct formation (dG-C8-AαC / dG-C8-PhIP) (calf thymus DNA): not detected

O=C(O)[C@H]1O[C@@H](ONc2ccc3c(n2)[nH]c2ccccc23)[C@H](O)[C@@H](O)[C@@H]1O [AαC-HN^2-O-Gluc, O-(β-D-glucosidurony1)-2-hydroxyamino-9H-pyrido[2,3-b]indole]
half-life [11]: exceeds 6 h

— article PMC4868641 (Chemical research in toxicology, 2016)
